From US20250027086A1, “COMPOSITIONS AND METHODS FOR TREATMENT OF CANCERS USING MODIFIED siRNA-GEM AGENTS” (Sirnaomics, Inc., priority 2022, published 2025)

Tested on: pancreatic, lung and colon cancer cell lines
Assay: Cell viability in pancreatic, lung and colon cancer cell lines
Format: cell-based
Details: single siRNA against non-silencing control; pancreatic, lung, colon; FIG. 6
Method: MIA PaCa-2, […], LS180, HT1376, HT29, H358, H1299, OVCAR-3, HTB-9 and Panc 10.05 cells were obtained from ATCC (Rockville, MD). MiaPaCa cells were cultured in DMEM medium supplemented with 10% FBS. H358, H1299, HTB-9, N87 and Panc 10.05 cells were cultured in DMEM/10% FBS; LS180 and HT1376 in EMEM/10% FBS; HT29 cells in McCoy5A/10% FBS; OVCAR-3 cells were incubated in RPMI/20% FBS. All cells were maintained at 37 degrees C. in an atmosphere containing 5% CO^2.
The day before transfection, cells were seeded in a 384-well plate at an optimal density of between 300 and 800 cells/well. The next day, ten 3-fold serial dilutions of single, modified-backbone siRNAs or PGN6/PGN7 siRNA and Gemcitabine (GEM) mixed with siRNAs: Wee1 #7, KRAS #1, MCL1 #3 or DM2-P47 siRNAs at 1:1 ratio were prepared and combined with diluted Lipofectamine RNAiMAX (Life Technologies, Carlsbad, CA). Within 20 minutes, 10 μl of the transfection mixtures were added to the cells in a 40 μL medium. The final concentrations of siRNAs or Gemcitabine in the wells ranged from 100 nM to 0.002 nM.
Ninety-six hours following the addition of GEM or transfection mixtures, the number of viable cells was determined with CellTiter-Glo®-2.0 reagent (Promega, Madison, WI) by measuring luminescent signal using a Cytation 5 plate reader (BioTek Inc, Winooski, VT). The treatment group (n=4) mean (±SD) was compared to those of non-treated controls and were reported as relative cell viability.
Using the same experimental conditions as are described above in Example 1, the efficacy on cell viability was evaluated for PGN6 (SEQ. ID Nos. 7-8), with and without lipofentamine (“lipo”) in three types of cancer cell lines. FIG. 3 (a)-(c) show the effects of PGN6, with and without lipo on cell viability at increasing siRNA levels in pancreatic cancer cell lines. FIG. 4 (a)-(b) similarly show the effects of these variants on cell viability in lung cancer cell lines; FIG. 5 (a)-(b) show the effects of these variants on cell viability in colon cancer cell lines. All data are shown as mean±SD. […]
Using the same experimental conditions as are described above in Example 1, the efficacy of STD1 (SEQ. ID Nos. 1-2), PGN6 (SEQ. ID Nos. 7-8) and PGN7 (SEQ. ID Nos. 9-10) were evaluated in three types of cancer cell lines. […]
Using the same experimental conditions as are described above in Example 1, the efficacy of PGN7 (SEQ. ID No. 9-10) alone and its combination with WEE1 #7 (SEQ. ID No. 13) was evaluated in three types of cancer cell lines. […]
Using the same experimental conditions as are described above in Example 1, the efficacy of PGN7 (SEQ. ID No. 9-10) and the combination of BCLxL #5 (SEQ. ID No. 14) and PGN7 was evaluated in three types of cancer cell lines. […]

With “PGN7: modified siRNA-GEM RNAi agent (SEQ. ID No. 9-10): sense 5′-AAGAAAgAgau[GEM]uGuAu[GEM]AAu-3′; antisense 5′-AuUGAuACAGAuCuCuUuCuU[GEM][GEM]dTdT-3′ (sense AAGAAAGAGATCTGTATCAAT; antisense ATTGATACAGATCTCTTTCTTCCTT; GEM modifications; 2'-modified bases; dTdT overhang; modified_base 1 OTHER; 2'-O-methyl modified nucleotide; modified_base 2 OTHER; modified_base 3 OTHER; modified_base 4 OTHER; modified_base 5 OTHER; modified_base 6 OTHER; modified_base 7 OTHER; 2'-fluoro modified nucleotide; modified_b; 2'-O-me)” the “reduction of cell viability” value was “effective in reducing cell viability”.
